Experimental data: paper PMC12203311, “Design, synthesis, in silico and in vitro evaluation of pyrrole–indole hybrids as dual tubulin and aromatase inhibitors with potent anticancer activities” (RSC Advances, 2025)

Key:
[1] = tested on: EKVX; experiment: NCI60 five-dose screen; type: cell-based; conditions: Homo sapiens, NSC lung cancer; for CC50: read-out: LC50 (the source's name)
[2] = tested on: SNB-19; experiment: NCI60 five-dose screen; type: cell-based; conditions: Homo sapiens, SNB-19, CNS cancer; for CC50: read-out: LC50 (the source's name)
[3] = tested on: MOLT-4; experiment: NCI60 five-dose screen; type: cell-based; conditions: Homo sapiens, MOLT-4, leukemia; for CC50: read-out: LC50 (the source's name)
[4] = tested on: BT-549; experiment: NCI60 five-dose screen; type: cell-based; conditions: Homo sapiens, BT-549, breast cancer; for CC50: read-out: LC50 (the source's name)
[5] = tested on: M14; experiment: NCI60 five-dose screen; type: cell-based; conditions: Homo sapiens, M14, melanoma; for CC50: read-out: LC50 (the source's name)
[6] = Cytotoxicity MTT assay, L929; type: cell-based, mouse; conditions: mouse, L929 fibroblast cells; MTT, 48 hours
How it was run: (§1)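 Read-out is absorbance at 570 nm of DMSO-solubilised formazan after a 3-hour incubation with 0.5 mg mL^−1 MTT. Percent viability is relative to vehicle (DMSO).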

[7] = tested on: L929 normal mouse fibroblast cell line; experiment: Cytotoxicity MTT assay, L929; type: cell-based; conditions: IC50 (L929)/IC50 (T47D)
How it was run: as §1

[8] = tested on: NCI-H460; experiment: NCI60 five-dose screen; type: cell-based; conditions: Homo sapiens, NCI-H460, NSC lung cancer; for CC50: read-out: LC50 (the source's name)
[9] = tested on: HOP-62; experiment: NCI60 five-dose screen; type: cell-based; conditions: Homo sapiens, HOP-62, NSC lung cancer; for CC50: read-out: LC50 (the source's name)
[10] = biological target: T1, Human CYP19 (aromatase) (Homo sapiens, UniProt P11511); experiment: Aromatase inhibition assay (DBF fluorometric substrate); type: biochemical; conditions: active defined as IC50 < 12.5 µM
T1 construct: purchased GENTEST, Woburn, MA 456260; host or cells: baculovirus/insect cells
T1 sequence (P11511 1-503): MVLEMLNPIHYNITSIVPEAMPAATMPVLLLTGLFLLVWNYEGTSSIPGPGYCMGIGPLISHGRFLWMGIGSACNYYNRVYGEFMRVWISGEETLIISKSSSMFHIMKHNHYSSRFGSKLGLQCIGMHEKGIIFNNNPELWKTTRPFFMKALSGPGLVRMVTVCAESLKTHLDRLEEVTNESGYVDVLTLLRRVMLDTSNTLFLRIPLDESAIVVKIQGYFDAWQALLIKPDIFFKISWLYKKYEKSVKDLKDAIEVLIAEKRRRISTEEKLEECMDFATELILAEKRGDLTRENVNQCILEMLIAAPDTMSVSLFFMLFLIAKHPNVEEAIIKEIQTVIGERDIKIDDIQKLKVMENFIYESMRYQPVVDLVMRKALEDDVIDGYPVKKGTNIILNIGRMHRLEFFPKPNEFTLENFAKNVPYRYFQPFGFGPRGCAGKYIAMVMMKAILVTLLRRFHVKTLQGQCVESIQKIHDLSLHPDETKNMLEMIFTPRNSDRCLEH
How it was run: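 Insect-cell-expressed human CYP19 Supersomes with oxidoreductase turned over DBF for 30 min at 37 °C after a 10 min 37 °C pre-incubation with cofactor. NaOH quench; product measured by fluorescence, excitation 490 nm, emission 530 nm.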

[11] = tested on: HT29; experiment: NCI60 five-dose screen; type: cell-based; conditions: Homo sapiens, HT-29, HT29, colon cancer; for CC50: read-out: LC50 (the source's name)
[12] = tested on: NCI-H322M; experiment: NCI60 five-dose screen; type: cell-based; conditions: Homo sapiens, NSC lung cancer; for CC50: read-out: LC50 (the source's name)
[13] = tested on: UACC-257; experiment: NCI60 five-dose screen; type: cell-based; conditions: Homo sapiens, UACC-257, melanoma; for CC50: read-out: LC50 (the source's name)
[14] = tested on: OVCAR-8; experiment: NCI60 five-dose screen; type: cell-based; conditions: Homo sapiens, OVCAR-8, ovarian cancer; for CC50: read-out: LC50 (the source's name)
[15] = tested on: HCT-15; experiment: NCI60 five-dose screen; type: cell-based; conditions: Homo sapiens, HCT-15, colon cancer; for CC50: read-out: LC50 (the source's name)
[16] = tested on: NCI/ADR-RES; experiment: NCI60 five-dose screen; type: cell-based, human; conditions: Homo sapiens, ovarian cancer; for CC50: read-out: LC50 (the source's name)
[17] = tested on: CAKI-1; experiment: NCI60 five-dose screen; type: cell-based; conditions: Homo sapiens, CAKI-1, renal cancer; for CC50: read-out: LC50 (the source's name)
[18] = tested on: LOX IMVI; experiment: NCI60 five-dose screen; type: cell-based; conditions: Homo sapiens, melanoma; for CC50: read-out: LC50 (the source's name)
[19] = tested on: NCI-H226; experiment: NCI60 five-dose screen; type: cell-based; conditions: Homo sapiens, NCI-H226, NSC lung cancer; for CC50: read-out: LC50 (the source's name)
[20] = tested on: 786-0; experiment: NCI60 five-dose screen; type: cell-based; conditions: Homo sapiens, 786-0, renal cancer; for CC50: read-out: LC50 (the source's name)
[21] = tested on: NCI-H522; experiment: NCI60 five-dose screen; type: cell-based; conditions: Homo sapiens, NCI-H522, NSC lung cancer; for CC50: read-out: LC50 (the source's name)
[22] = tested on: HOP-92; experiment: NCI60 five-dose screen; type: cell-based; conditions: Homo sapiens, HOP-92, NSC lung cancer; for CC50: read-out: LC50 (the source's name)

For `O=C(N/N=C/c1cc(Cl)c[nH]1)c1[nH]c2ccc(Br)cc2c1-c1ccccc1` [Derivative 3h, (E)-5-Bromo-N′-((4-chloro-1H-pyrrol-2-yl)methylene)-3-phenyl-1H-indole-2-carbohydrazide], the GI50 [1] was 1.28 µM, the CC50 [1] was greater than 100 µM and the GI50 [2] was 0.638 µM. For the same molecule, the CC50 [2] was 61.9 µM, the GI50 [3] was 0.283 µM and the GI50 [4] was 0.255 µM. For the same molecule, the CC50 [4] was 18.1 µM, the GI50 [5] was 0.305 µM and the CC50 [5] was 50.3 µM. The IC50 at 48 h [6] was 53.7 ± 30.4 µM, the “Selectivity index (SI)” value [7] was 22.4 and the GI50 [8] was 0.281 µM. It also gave a CC50 [8] of 9.24 µM, a GI50 [9] of 0.408 µM and a CC50 [9] of 34.7 µM. It also gave an IC50 [10] of 1.8 ± 0.4 µM, a GI50 [11] of 0.287 µM and a CC50 [11] of 7.2 µM. It also gave a GI50 [12] of 0.768 µM, a CC50 [12] of 92.3 µM and a GI50 [13] of 0.856 µM. It also gave a CC50 [13] of 58.8 µM, a GI50 [14] of 0.214 µM and a CC50 [14] of 0.988 µM. For the same molecule, the GI50 [15] was 0.302 µM, the CC50 [15] was 21.9 µM and the GI50 [16] was 0.2 µM. For the same molecule, the GI50 [17] was 0.253 µM, the CC50 [17] was 27.5 µM and the GI50 [18] was 0.37 µM. The CC50 [18] was 16.7 µM, the GI50 [19] was 0.604 µM and the CC50 [19] was greater than 100 µM. The GI50 [20] was 0.459 µM, the CC50 [20] was 39.8 µM and the GI50 [21] was 0.211 µM. For the same molecule, the CC50 [21] was greater than 100 µM, the GI50 [22] was 1.19 µM and the CC50 [22] was 55.4 µM.
`CCOC(=O)c1c[nH]c(/C=N/NC(=O)c2[nH]c3ccc(Br)cc3c2-c2ccccc2)c1` [Derivative 3j, Ethyl (E)-5-((2-(5-bromo-3-phenyl-1H-indole-2-carbonyl)hydrazono)methyl)-1H-pyrrole-3-carboxylate] gave a GI50 [1] of 4.57 µM, a CC50 [1] of 43.1 µM and a GI50 [2] of 4.51 µM. The CC50 [2] was 46.1 µM, the GI50 [3] was 2.1 µM and the CC50 [3] was 53.4 µM. It also gave a GI50 [4] of 2.23 µM, a CC50 [4] of 29.5 µM and a GI50 [5] of 2.39 µM. For the same molecule, the CC50 [5] was 50.3 µM, the IC50 at 48 h [6] was 12.2 ± 1 µM and the “Selectivity index (SI)” value [7] was 1.17. For the same molecule, the GI50 [8] was 2.41 µM, the CC50 [8] was 23.1 µM and the GI50 [9] was 2.78 µM. For the same molecule, the CC50 [9] was 54.4 µM, the IC50 [10] was 1.3 ± 0.4 µM and the GI50 [11] was 2.59 µM. It also gave a CC50 [11] of 27.5 µM, a GI50 [12] of 5.63 µM and a CC50 [12] of 50 µM. For the same molecule, the GI50 [13] was 2.53 µM, the CC50 [13] was 51.8 µM and the GI50 [14] was 2.37 µM. The CC50 [14] was 23.7 µM, the GI50 [15] was 2.93 µM and the CC50 [15] was 51.9 µM. For the same molecule, the GI50 [16] was 1.89 µM, the CC50 [16] was 10.4 µM and the GI50 [17] was 1.46 µM. It also gave a CC50 [17] of 40.5 µM, a GI50 [18] of 2.82 µM and a CC50 [18] of 40.9 µM. The GI50 [19] was 3.07 µM, the CC50 [19] was 41.3 µM and the GI50 [20] was 3.29 µM. For the same molecule, the CC50 [20] was 44.7 µM, the GI50 [21] was 2.27 µM and the CC50 [21] was 33 µM. The GI50 [22] was 4.56 µM and the CC50 [22] was 58.6 µM.
`O=C(N/N=C/c1ccc(C(=O)N2CCOCC2)[nH]1)c1[nH]c2ccc(Br)cc2c1-c1ccccc1` [Derivative 3n, (E)-5-Bromo-N′-((5-(morpholine-4-carbonyl)-1H-pyrrol-2-yl)methylene)-3-phenyl-1H-indole-2-carbohydrazide] showed a GI50 [1] of 7.51 µM, a CC50 [1] greater than 100 µM and a GI50 [2] of 5.66 µM. For the same molecule, the CC50 [2] was greater than 100 µM, the GI50 [3] was 1.5 µM and the CC50 [3] was 20.8 µM. It also gave a GI50 [4] of 2.36 µM, a CC50 [4] of 55.2 µM and a GI50 [5] of 1.92 µM. The CC50 [5] was 64.2 µM, the IC50 at 48 h [6] was 21.8 ± 11.5 µM and the “Selectivity index (SI)” value [7] was 4.04. It also gave a GI50 [8] of 2.49 µM, a CC50 [8] of 54.1 µM and a GI50 [9] of 3.36 µM. For the same molecule, the CC50 [9] was 69.2 µM, the IC50 [10] was 3.3 ± 0.6 µM and the GI50 [11] was 2.57 µM. It also gave a CC50 [11] of 38.3 µM, a GI50 [12] of 13.9 µM and a CC50 [12] greater than 100 µM. It also gave a GI50 [13] of 11.9 µM, a CC50 [13] of 94.4 µM and a GI50 [14] of 2.86 µM. For the same molecule, the CC50 [14] was 43.1 µM, the GI50 [15] was 2.62 µM and the CC50 [15] was greater than 100 µM. It also gave a GI50 [16] of 1.92 µM, a CC50 [16] of 84.1 µM and a GI50 [17] of 1.46 µM. It also gave a CC50 [17] greater than 100 µM, a GI50 [18] of 3.06 µM and a CC50 [18] of 71.2 µM. The GI50 [19] was 3.39 µM, the CC50 [19] was 81.7 µM and the GI50 [20] was 2.86 µM. It also gave a CC50 [20] of 80.7 µM, a GI50 [21] of 1.6 µM and a CC50 [21] of 58.8 µM. The GI50 [22] was 6.14 µM and the CC50 [22] was greater than 100 µM.
